PMC10820861, “Furofuranoid-Type Lignans and Related Phenolics from Anisacanthus virgularis (Salisb.) Nees with Promising Anticholinesterase and Anti-Ageing Properties: A Study Supported by Molecular Modelling” (Plants, 2024)
Where “and” joins values, the source holds several entries; their conditions need not be identical. Equal entries are not always repeated. Where two headings read alike, the source gives them in different places.

Tests used:
AChE = target: T1, AChE (Electrophorus electricus, UniProt O42275); assay: biochemical; details: for IC50 / % Inhibition of AChE: mean ± SD; for inhibition at 0.01 µM / inhibition at 0.1 µM / inhibition at 1 µM / inhibition at 10 µM: read-out: % Inhibition of AChE
T1 construct: purchased
T1 sequence (O42275 24-633): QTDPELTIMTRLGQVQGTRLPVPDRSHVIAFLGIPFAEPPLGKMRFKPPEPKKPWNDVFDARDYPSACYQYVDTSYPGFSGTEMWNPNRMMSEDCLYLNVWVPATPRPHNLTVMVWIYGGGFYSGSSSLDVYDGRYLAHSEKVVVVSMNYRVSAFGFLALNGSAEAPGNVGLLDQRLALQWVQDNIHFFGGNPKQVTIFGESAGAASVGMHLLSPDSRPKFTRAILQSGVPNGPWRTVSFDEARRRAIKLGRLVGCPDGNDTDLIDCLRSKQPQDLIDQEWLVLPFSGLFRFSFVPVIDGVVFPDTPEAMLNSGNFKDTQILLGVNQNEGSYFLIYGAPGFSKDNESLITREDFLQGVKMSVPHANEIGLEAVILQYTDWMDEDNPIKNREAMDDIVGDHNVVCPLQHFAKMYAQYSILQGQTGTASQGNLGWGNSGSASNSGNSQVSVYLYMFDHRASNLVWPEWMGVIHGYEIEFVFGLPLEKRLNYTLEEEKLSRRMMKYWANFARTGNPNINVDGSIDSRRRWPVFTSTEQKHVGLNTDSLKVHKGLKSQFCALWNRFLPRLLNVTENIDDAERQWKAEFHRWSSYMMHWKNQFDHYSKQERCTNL
Procedure: The preparation of the sample was the same as has been previously described. The AChE-inhibitory effect of the furofuranoid lignans 1–5 was determined using an AChE inhibitor screening kit (the Quanti-Chrome assay kit). […] The 96-well plate reaction was prepared according to the manufacturer’s protocol.

TERT = TERT enzyme (telomerase activation) assay in normal melanocyte HFB4 cells; format: cell-based, human; details: 1 μM; for TERT Concentration Mean ± SD / Relative Increase (TERT vs untreated HFB4 control): 24 h; for Relative Increase (TERT vs untreated HFB4 control): control = 1
Procedure: In the present study, we assessed the in vitro anti-ageing activity of the lignan-type compounds 1–5 utilizing a TERT enzyme assay (Table 3). The normal melanocyte cell line (HFB4) was used as a model system in this study, and curcumin (1 μM) was used as a standard telomerase activator [47]. According to the report, curcumin has made it possible for model organisms to live longer, reduced the signs of ageing, and slowed the onset of age-related illnesses where cellular senescence is a direct cause.
TERT activity assay was used for in vitro investigation of the compound’s anti-ageing properties. The HFB4 (VACSERA, Giza, Egypt) was used as a model system for the study of amplification of telomers in response to our test compounds and curcumin. HFB4 cells were cultivated in RPMI-1640 medium enriched with heat-inactivated FBS (10%) and penicillin–streptomycin (100 U/mL). HFB4 cells (2 × 10^5) were plated and incubated in a 5% CO2 humidified atmosphere at 37 °C for 24 h. The cells were then left untreated (negative control), treated with tested compounds and with 1 μM curcumin, a standard activator for TERT. The supernatant from the various conditions was collected after 24 h, centrifuged for 20 min at 1000× g at 4 ℃, and immediately submitted for the assay as previously described. The different supernatants were added separately to a microtiter plate pre-coated with a TERT-specific antibody (Ab) and then incubated with a TERT-specific biotin detection Ab. Then, streptavidin/horseradish peroxidase (SABC) conjugate was added to all wells and incubated. […] The optical density (OD) was measured spectrophotometrically at 450 nm. The TERT concentration was determined by comparing the OD of the samples with the standard curve prepared according to the instructions of the manufacturer. The relative OD450 = (OD450 of the reaction well) − (OD450 of no treatment well). The standard curve was plotted by drawing the relative OD450 of each standard solution (Y) versus the respective concentration of the standard solution (X). The human TERT concentration of the samples was interpolated from the standard curve.

memory decline = details: 25 mg/kg, p.o.; dose-dependent; cited from earlier work
[1] = system: hippocampal long-term potentiation; parameters: method as in PMID 30685474; details: 50 μM; cited from earlier work
acetylcholinesterase = details: concentration-dependent; cited from earlier work
neuro2a cells = system: neuro2a cells; parameters: method as in PMID 30685474; details: cited from earlier work
[2] = system: butyrylcholinesterase enzyme; parameters: method as in doi:10.25135/rnp.71.17.04.074; details: 250 µg/mL; cited from earlier work
AChE enzyme = system: AChE enzyme; parameters: method as in doi:10.25135/rnp.71.17.04.074; details: 250 µg/mL; cited from earlier work
[3] = read-out: IC50 (AChE inhibition)

Row | Compound | IC50 (AChE; IC50 (AChE inhibition)) | inhibition at 0.01 µM (AChE) | inhibition at 0.1 µM (AChE) | inhibition at 1 µM (AChE) | inhibition at 10 µM (AChE) | increase in telomerase activity compared to untreated cells (TERT) | TERT Concentration Mean ± SD (TERT) | Relative Increase (TERT vs untreated HFB4 control) (TERT) | effect on memory decline in dementia model (memory decline) | effect on induction of hippocampal long-term potentiation [1] | effect on acetylcholinesterase activity (acetylcholinesterase) | effect on calcium influx (neuro2a cells) | IC50 (AChE; [3]) | inhibitory effect on the butyrylcholinesterase enzyme [2] | inhibitory effect on the AChE enzyme (AChE enzyme) | % Inhibition of AChE (AChE; 0.01 µM) | % Inhibition of AChE (AChE; 0.1 µM) | % Inhibition of AChE (AChE; 1 µM) | % Inhibition of AChE (AChE; 10 µM)
1 | COc1cc([C@H]2OC[C@H]3[C@@H]2CO[C@@H]3c2ccc(O)c(OC)c2)ccc1O (relative stereo) [Compound 2, pinoresinol] | 0.292 ± 0.009 µM | 26 ± 1% | 41 ± 1% | 60 ± 3% | 75 ± 2% | a little weak | 2.2 ± 0.03 ng/mL | 1.28 | improved memory decline | aided the induction of hippocampal long-term potentiation | inhibited the activity of acetylcholinesterase in a concentration-dependent manner | aided calcium influx into neuro2a cells | – | – | – | – | – | – | –
2 | COc1cc([C@H]2OC[C@H]3[C@@H]2CO[C@H]3c2ccc(O)c(OC)c2)ccc1O (relative stereo) [Compound 3, epipinoresinol] | 0.242 ± 0.009 µM | 23 ± 1% | 44 ± 1% | 60 ± 2% | 82 ± 3% | a little weak | 2.0 ± 0.06 ng/mL | 1.18 | – | – | – | – | – | – | – | – | – | – | –
3 | COc1cc([C@H]2OC[C@H]3[C@@H]2CO[C@@H]3c2cc(OC)c3c(c2)[C@H](CO)[C@@H](c2ccc(O[C@@H]4O[C@H](CO)[C@@H](O)[C@H](O)[C@H]4O)c(OC)c2)O3)ccc1O [Compound 1, anisacanthin] | – | 24 ± 1% | 61 ± 1% | 75 ± 2% | 83 ± 2% | 1.64 fold | 2.8 ± 0.04 ng/mL | 1.64 | – | – | – | – | 0.085 µM | – | – | – | – | – | –
4 | COc1cc([C@H]2OC[C@H]3[C@@H]2CO[C@@H]3c2ccc(O[C@@H]3O[C@H](CO)[C@@H](O)[C@H](O)[C@H]3O)c(OC)c2)ccc1O [Compound 5, pinoresinol 4-O-β-D-glucoside] | – | 28 ± 3% | 59 ± 4% | 79 ± 1% | 88 ± 3% | 1.66 fold | 2.8 ± 0.09 ng/mL | 1.66 | – | – | – | – | 0.0645 µM and 0.064 µM | 11.02 ± 0.35% | 20.17 ± 0.44% | – | – | – | –
5 | COc1cc(/C=C/C(=O)CC(=O)/C=C/c2ccc(O)c(OC)c2)ccc1O [Curcumin, curcumin, reference compound] | – | – | – | – | – | 1.62 fold | 2.8 ± 0.03 ng/mL | 1.62 | – | – | – | – | – | – | – | – | – | – | –
6 | phillyrin [Compound 4] | – | – | – | – | – | 1.72 fold and 1.71 fold | 2.9 ± 0.06 ng/mL | 1.72 | – | – | – | – | – | – | – | 26 ± 3% | 41 ± 2% | 64 ± 2% | 73 ± 2%
